Legend:
Assay in all cases: In vitro competitive activity-based protein profiling (gel-based, FP-Rh or HT-01 probe)
Assay type in all cases: biochemical
ABHD6 = target: T1, ABHD6 (Mus musculus, UniProt Q8R2Y0); settings: for inhibition at 1 µM: 1 μM inhibitor, read-out: % Inhibition at 1 μM, C = ABHD6; for inhibition at 10 µM: 10 μM inhibitor, read-out: % Inhibition at 10 μM, C = ABHD6
T1 construct: Proteomes (mouse brain membrane fraction or cell lysates); from tissue; host or cells: mouse brain membrane fraction (or cell lysates, not specified)
T1 sequence (Q8R2Y0 1-336): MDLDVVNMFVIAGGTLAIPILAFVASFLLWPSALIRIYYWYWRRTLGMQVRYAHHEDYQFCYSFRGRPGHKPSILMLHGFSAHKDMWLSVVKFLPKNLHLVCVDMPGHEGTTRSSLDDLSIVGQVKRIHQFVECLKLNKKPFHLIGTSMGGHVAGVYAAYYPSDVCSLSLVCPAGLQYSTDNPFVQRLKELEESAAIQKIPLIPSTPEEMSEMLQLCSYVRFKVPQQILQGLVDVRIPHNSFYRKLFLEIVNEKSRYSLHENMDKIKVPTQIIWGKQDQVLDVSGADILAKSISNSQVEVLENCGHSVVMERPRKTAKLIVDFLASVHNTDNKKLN
Description: (§1) In Vitro Competitive Activity-Based Protein Profiling.
(§2) Proteomes (mouse brain membrane fraction or cell lysates) (50 μL, 1.0 mg/mL total protein concentration) were preincubated with varying concentrations of inhibitors at 37° C. After 30 min, FP-Rh or HT-01 ([…], 50 μM in DMSO) was added and the mixture was incubated for another 30 min at 37° C. Reactions were quenched with SDS loading buffer (15 μL—4×) and run on SDS-PAGE. Following gel imaging, serine hydrolase activity was determined by measuring fluorescent intensity of gel bands corresponding to MAGL, ABHD6, FAAH, and PLA2G7 using ImageJ 1.43u software.

FAAH = target: T2, FAAH (Mus musculus, UniProt O08914); settings: for inhibition at 1 µM: 1 μM inhibitor, read-out: % Inhibition at 1 μM, B = FAAH; for inhibition at 10 µM: 10 μM inhibitor, read-out: % Inhibition at 10 μM, B = FAAH
T2 construct: Proteomes (mouse brain membrane fraction or cell lysates); from tissue; host or cells: mouse brain membrane fraction (or cell lysates, not specified)
T2 sequence (O08914 1-579): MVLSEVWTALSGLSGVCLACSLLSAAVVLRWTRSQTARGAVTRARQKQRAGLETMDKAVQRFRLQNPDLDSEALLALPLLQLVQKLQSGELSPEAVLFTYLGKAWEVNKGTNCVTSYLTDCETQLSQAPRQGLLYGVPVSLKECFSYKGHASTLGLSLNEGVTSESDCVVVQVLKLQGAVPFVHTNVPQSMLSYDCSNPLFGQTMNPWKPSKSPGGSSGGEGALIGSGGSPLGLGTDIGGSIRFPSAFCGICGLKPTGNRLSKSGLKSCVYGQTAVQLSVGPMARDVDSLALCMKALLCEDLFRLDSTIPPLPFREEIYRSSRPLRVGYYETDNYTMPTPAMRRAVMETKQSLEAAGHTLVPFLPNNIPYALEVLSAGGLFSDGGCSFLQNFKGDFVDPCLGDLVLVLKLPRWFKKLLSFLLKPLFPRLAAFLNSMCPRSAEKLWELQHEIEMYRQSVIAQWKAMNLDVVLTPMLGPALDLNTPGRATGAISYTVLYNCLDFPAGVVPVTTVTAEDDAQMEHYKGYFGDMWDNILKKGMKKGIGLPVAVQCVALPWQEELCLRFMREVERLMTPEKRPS
Description: as §1, §2

MAGL = target: T3, MAGL (Mus musculus, UniProt O35678); settings: for inhibition at 1 µM: 1 μM inhibitor; for inhibition at 10 µM: 10 μM inhibitor
T3 construct: Proteomes (mouse brain membrane fraction or cell lysates); from tissue; host or cells: mouse brain membrane fraction (or cell lysates, not specified)
T3 sequence (O35678 1-303): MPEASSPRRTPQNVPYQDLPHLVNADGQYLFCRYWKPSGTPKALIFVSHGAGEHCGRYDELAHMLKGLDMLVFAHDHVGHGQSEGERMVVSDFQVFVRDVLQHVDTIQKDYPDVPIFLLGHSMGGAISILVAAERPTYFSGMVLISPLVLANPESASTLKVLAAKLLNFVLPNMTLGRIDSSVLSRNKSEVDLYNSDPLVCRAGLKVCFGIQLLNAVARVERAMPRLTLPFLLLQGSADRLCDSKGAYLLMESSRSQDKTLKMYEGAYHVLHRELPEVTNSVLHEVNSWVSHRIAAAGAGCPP
Description: as §1, §2

PLA2G7 = target: T4, PLA2G7 (Mus musculus, UniProt Q60963); settings: for inhibition at 1 µM: 1 μM inhibitor, read-out: % Inhibition at 1 μM, D = PLA2G7; for inhibition at 10 µM: 10 μM inhibitor, read-out: % Inhibition at 10 μM, D = PLA2G7
T4 construct: Proteomes (mouse brain membrane fraction or cell lysates); from tissue; host or cells: mouse brain membrane fraction (or cell lysates, not specified)
T4 sequence (Q60963 22-440): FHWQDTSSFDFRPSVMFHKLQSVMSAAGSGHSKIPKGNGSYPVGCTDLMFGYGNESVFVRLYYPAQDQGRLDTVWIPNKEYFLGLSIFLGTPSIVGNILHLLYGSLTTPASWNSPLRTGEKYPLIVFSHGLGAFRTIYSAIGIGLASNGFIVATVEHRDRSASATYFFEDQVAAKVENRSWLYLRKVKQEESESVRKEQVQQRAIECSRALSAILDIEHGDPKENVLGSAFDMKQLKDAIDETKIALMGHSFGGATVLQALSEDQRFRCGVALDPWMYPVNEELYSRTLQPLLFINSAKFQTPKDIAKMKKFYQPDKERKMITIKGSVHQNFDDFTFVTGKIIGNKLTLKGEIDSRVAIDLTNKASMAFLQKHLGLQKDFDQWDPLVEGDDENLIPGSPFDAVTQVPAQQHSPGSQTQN
Description: as §1, §2

Compound	inhibition at 1 µM (ABHD6) [%]	inhibition at 10 µM (ABHD6) [%]	inhibition at 1 µM (FAAH) [%]	inhibition at 10 µM (FAAH) [%]	inhibition at 1 µM (MAGL) [%]	inhibition at 10 µM (MAGL) [%]	inhibition at 1 µM (PLA2G7) [%]	inhibition at 10 µM (PLA2G7) [%]
CC(C)(C)OC(=O)N1CCCN(C(=O)n2cc(C#N)cn2)CC1 [Example 27, tert-Butyl 4-(4-cyano-1H-pyrazole-1-carbonyl)-1,4-diazepane-1-carboxylate]	> 75	> 75	> 75	> 75	> 75	> 75	> 75	> 75
CN(CCN(C)C(=O)n1cccn1)C(=O)OC(C)(C)C [Example 28, tert-Butyl methyl(2-(N-methyl-1H-pyrazole-1-carboxamido)ethyl)carbamate]	< 25	25 to 75	< 25	25 to 75	< 25	25 to 75	< 25	< 25
Cc1cnn(C(=O)N(C)CCN(C)C(=O)OC(C)(C)C)c1 [Example 29, tert-Butyl (2-(N,4-dimethyl-1H-pyrazole-1-carboxamido)ethyl)(methyl)carbamate]	< 25	> 75	< 25	25 to 75	< 25	25 to 75	< 25	< 25
O=C(NCCCc1ccccc1)n1cccn1 [Example 31, N-(3-Phenylpropyl)-1H-pyrazole-1-carboxamide]		< 25		< 25		< 25		< 25
Cc1cnn(C(=O)NCCCc2ccccc2)c1 [Example 32, 4-Methyl-N-(3-phenylpropyl)-1H-pyrazole-1-carboxamide]		< 25		< 25		< 25		< 25
N#Cc1cnn(C(=O)NCCCc2ccccc2)c1 [Example 33, 4-Cyano-N-(3-phenylpropyl)-1H-pyrazole-1-carboxamide]	< 25	< 25	< 25	> 75	< 25	< 25	< 25	< 25
O=C(NCCCCc1ccccc1)n1cccn1 [Example 34, N-(4-Phenylbutyl)-1H-pyrazole-1-carboxamide]		< 25		< 25		< 25		< 25
Cc1cnn(C(=O)NCCCCc2ccccc2)c1 [Example 35, 4-Methyl-N-(4-phenylbutyl)-1H-pyrazole-1-carboxamide]		< 25		< 25		< 25		< 25
N#Cc1cnn(C(=O)NCCCCc2ccccc2)c1 [Example 36, 4-Cyano-N-(4-phenylbutyl)-1H-pyrazole-1-carboxamide]	< 25	25 to 75	25 to 75	> 75	< 25	25 to 75	< 25	< 25
